34 compounds from patent publication US6376670B1, “Quinoline-indole antimicrobial agents, uses and compositions related thereto” (Sepracor Inc., priority 1997, dated 2002) can be followed below.

Common to all, as to test: Determination of MIC values (BHI broth, 96 well microtiter plate)
What all share (assay type): cell-based

For test [1], the system named is methicillin-resistant Staphylococcus aureus (MRSA). The following applies: Staphylococcus aureus, MRSA, BHI broth, read-out: MIC MRSA. The method, boiled down: (§1)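 Organisms are grown in BHI at 37° C (about 7% CO2) to a 0.5 McFarland standard, then inoculated at 10^5 to 10^6 cells/mL into BHI holding twofold compound dilutions (final 25 down to 0.39 µg/mL, DMSO-diluted). After overnight incubation, MIC is the lowest concentration lacking growth.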

For test [2], the system named is vancomycin-resistant Enterococcus spp. (VRE). Particulars: BHI broth; for MIC: Enterococcus, VRE, read-out: MIC VREF. The method, boiled down:
as §1

A further test has as its system Streptococcus pneumoniae. The following applies: Streptococcus pneumoniae, BHI broth, read-out: MIC S. pneu. The method, boiled down:
as §1

Where [3] appears, read: 16 h, 37° C., overnight (about 16 hours).
Setting [4] is: 37° C., overnight (about 16 hours).

Read-outs that look alike come from different tables or passages of the source. A value given as a limit tells only on which side of the number the result lay.

In the case of `NCc1ccc(CNC(=O)c2cc(-c3c[nH]c4ccc(Br)cc34)nc3ccccc23)cc1` [compound 9], the minimal inhibitory concentration (MIC) (in test [1] (setting [3]); in test [2] (setting [3]); in the test on Streptococcus pneumoniae (setting [4])) was below 7 µg/mL each time.
For `NC1CCC(NC(=O)c2cc(-c3c[nH]c4ccc(Br)cc34)nc3ccc(Cl)cc23)CC1` (stereo not drawn) [Example 131], the MIC is below 7 µg/mL in test [1] (setting [3]), below 25 µg/mL in test [2] (setting [3]) and below 7 µg/mL in the test with Streptococcus pneumoniae (setting [4]).
For the compound `Brc1ccc2[nH]cc(-c3ccc4ccccc4n3)c2c1` [Example 165], the minimal inhibitory concentration (MIC) (in test [1] (setting [3]); in test [2] (setting [3]); in the test on Streptococcus pneumoniae (setting [4])) was below 7 µg/mL each time.
For the compound `NCc1ccc(CNC(=O)c2cc(-c3c[nH]c4ccc(Br)cc34)nc3cc(Cl)c(C#CCN4CCc5ccccc5C4)cc23)cc1` [Example 281], the MIC was below 25 µg/mL in test [1] (overnight 37° C.); above 25 µg/mL in test [2] (VREF, overnight 37° C.); above 25 µg/mL in the test on Streptococcus pneumoniae (S. pneu, overnight 37° C.).
In the case of `NCCNC(=O)c1cc(-c2c[nH]c3ccc(Br)cc23)nc2cc(Cl)c(I)cc12` [Example 294], the MIC in test [1] (overnight 37° C.) is below 7 µg/mL; in test [2] (VREF, overnight 37° C.) it was below 7 µg/mL; in the test on Streptococcus pneumoniae (S. pneu, overnight 37° C.) it was below 7 µg/mL.
For `NCC1CCCC(CNC(=O)c2cc(-c3c[nH]c4ccc(Br)cc34)nc3c(F)cccc23)C1` (stereo not drawn) [Example 259], the MIC in test [1] (overnight 37° C.) was below 7 µg/mL; in test [2] (VREF, overnight 37° C.), below 7 µg/mL; with Streptococcus pneumoniae (S. pneu, overnight 37° C.) it was below 7 µg/mL.
As for `OCc1cc(-c2c[nH]c3ccc(Br)cc23)nc2cc(Cl)ccc12` [Example 456], the MIC in test [1] (16 h, 37° C., about 16 hours) was below 7 µg/mL; in the test with Streptococcus pneumoniae (37° C., about 16 hours), below 7 µg/mL. The “MIC VREF” value in test [2] (37° C., about 16 hours) is below 7 µg/mL.
As for `Fc1ccc2[nH]cc(-c3ccc4cc(Cl)ccc4n3)c2c1` [Example 191], the minimal inhibitory concentration (MIC) in test [1] (setting [3]) is below 7 µg/mL; in test [2] (setting [3]), below 25 µg/mL; in the test with Streptococcus pneumoniae (setting [4]), below 7 µg/mL.
On to `Clc1ccc2nc(-c3c[nH]c4c(Br)cccc34)ccc2c1` [Example 355], for which the MIC is above 25 µg/mL in test [1] (overnight 37° C.); above 25 µg/mL in test [2] (VREF, overnight 37° C.); above 25 µg/mL with Streptococcus pneumoniae (S. pneu, overnight 37° C.).
For `Cc1ccc2nc(-c3c[nH]c4ccc(Br)cc34)cc(C(=O)NCc3ccc(CN)cc3)c2c1` [Example 104], the MIC (in test [1] (setting [3]); in test [2] (setting [3]); in the test on Streptococcus pneumoniae (setting [4])) was below 7 µg/mL each time.
`COc1ccc(NC(=O)c2cc(-c3c[nH]c4ccc(Br)cc34)nc3ccccc23)cc1` [Example 48]: the minimum inhibitory concentration (MIC) in test [1] (setting [3]) is below 7 µg/mL; in test [2] (setting [3]), above 25 µg/mL; with Streptococcus pneumoniae (setting [4]), below 7 µg/mL.
Consider `COc1ccc2nc(-c3c[nH]c4ccc(C)cc34)ccc2c1` [Example 415], for which the MIC in test [1] (16 h, 37° C., about 16 hours) is below 7 µg/mL; in test [2] (16 h, 37° C., about 16 hours) it was above 25 µg/mL; in the test on Streptococcus pneumoniae (37° C., about 16 hours), above 25 µg/mL.
With `NCc1ccc(CNC(=O)c2cc(-c3c[nH]c4ccc(Br)cc34)nc3cc(Cl)cc(Cl)c23)cc1` [Example 209], the MIC in test [1] (overnight 37° C.) was below 7 µg/mL; in test [2] (VREF, overnight 37° C.), below 7 µg/mL; in the test with Streptococcus pneumoniae (S. pneu, overnight 37° C.), below 7 µg/mL.
In the case of `Clc1ccc2nc(-c3c[nH]c4ccc(Br)cc34)c3c(c2c1)OCC3` [Example 448], the minimal inhibitory concentration (MIC) was below 7 µg/mL in test [1] (16 h, 37° C., about 16 hours); above 25 µg/mL in test [2] (16 h, 37° C., about 16 hours); below 25 µg/mL in the test on Streptococcus pneumoniae (37° C., about 16 hours).
Take `NCC(O)CNC(=O)c1cc(-c2c[nH]c3ccc(Br)cc23)nc2cc(Cl)cc(Cl)c12` (stereo not drawn) [Example 533]: the MIC in test [1] (16 h, 37° C., about 16 hours) was below 7 µg/mL; in test [2] (16 h, 37° C., about 16 hours) it was below 7 µg/mL; with Streptococcus pneumoniae (37° C., about 16 hours) it was below 7 µg/mL.
`O=[N+]([O-])c1cccc2nc(-c3c[nH]c4ccc(Br)cc34)ccc12` [Example 387]: the MIC was above 25 µg/mL in test [1] (overnight 37° C.); above 25 µg/mL in test [2] (VREF, overnight 37° C.); above 25 µg/mL in the test with Streptococcus pneumoniae (S. pneu, overnight 37° C.).
With `NCc1cccc(CNC(=O)c2cc(-c3cc4cc(Cl)ccc4[nH]3)nc3cc(I)ccc23)c1` [Example 311], the MIC in test [1] (overnight 37° C.) is above 25 µg/mL; in test [2] (VREF, overnight 37° C.) it was above 25 µg/mL; in the test with Streptococcus pneumoniae (S. pneu, overnight 37° C.), above 25 µg/mL.
With `CN(C)CCNCC#Cc1ccc2nc(-c3cn(C)c4ccc(Br)cc34)cc(C(=O)NCc3ccc(CN)cc3)c2c1` [Example 392], the MIC was below 7 µg/mL in test [1] (overnight 37° C.); below 7 µg/mL in test [2] (VREF, overnight 37° C.); below 7 µg/mL in the test with Streptococcus pneumoniae (S. pneu, overnight 37° C.).
As to `N#CCc1cc(-c2c[nH]c3ccc(Br)cc23)nc2cc(Cl)ccc12` [Example 522], the minimal inhibitory concentration (MIC) in test [1] (16 h, 37° C., about 16 hours) was below 7 µg/mL; in test [2] (16 h, 37° C., about 16 hours), below 25 µg/mL; with Streptococcus pneumoniae (37° C., about 16 hours), below 7 µg/mL.
In the case of `Cn1cc(-c2cc(C(=O)NCCN)c3cc(C#CCN4CCc5ccccc5C4)ccc3n2)c2cc(Br)ccc21` [Example 404], the MIC in test [1] (16 h, 37° C., about 16 hours) is below 7 µg/mL; in test [2] (16 h, 37° C., about 16 hours) it was below 7 µg/mL; in the test with Streptococcus pneumoniae (37° C., about 16 hours), below 7 µg/mL.
For the compound `O=C(NCc1nc2ccccc2[nH]1)c1cc(-c2c[nH]c3ccc(Br)cc23)nc2ccc(C(F)(F)F)cc12` [Example 172], the MIC in test [1] (setting [3]) is below 7 µg/mL; in test [2] (setting [3]) it was above 25 µg/mL; in the test on Streptococcus pneumoniae (setting [4]), below 7 µg/mL.
On to `NCCNC(=O)c1cc(-c2c[nH]c3ccc(Br)cc23)nc2c(Br)cccc12` [Example 315], for which the MIC in test [1] (overnight 37° C.) was below 7 µg/mL; in test [2] (VREF, overnight 37° C.), below 7 µg/mL; in the test with Streptococcus pneumoniae (S. pneu, overnight 37° C.) it was below 7 µg/mL.
As for `O=C(O)c1cc(-c2c[nH]c3ccc(Br)cc23)nc2ccc(C#CCNC3CCCCC3)cc12` [Example 233], the MIC in test [1] (overnight 37° C.) was above 25 µg/mL; in test [2] (VREF, overnight 37° C.) it was below 25 µg/mL; with Streptococcus pneumoniae (S. pneu, overnight 37° C.) it was below 25 µg/mL.
On to `NCCNC(=O)c1cc(-c2c[nH]c3ccc(Br)cc23)nc2cc(Cl)c(C#CCN3CC=CCC3)cc12` [Example 529], for which the MIC in test [1] (16 h, 37° C., about 16 hours) was below 7 µg/mL; in test [2] (16 h, 37° C., about 16 hours) it was below 7 µg/mL; with Streptococcus pneumoniae (37° C., about 16 hours), below 7 µg/mL.
Consider `COc1ccc2[nH]cc(-c3cc(Cl)c4ccc(Cl)cc4n3)c2c1` [Example 464], for which the minimal inhibitory concentration (MIC) was below 7 µg/mL in test [1] (16 h, 37° C., about 16 hours); above 25 µg/mL in test [2] (16 h, 37° C., about 16 hours); below 7 µg/mL in the test on Streptococcus pneumoniae (37° C., about 16 hours).
For the compound `Cc1cc2nc(-c3c[nH]c4ccc(Br)cc34)cc(C(=O)NCc3ccc(CN)cc3)c2cc1C` [Example 118], the minimum inhibitory concentration (MIC) (in test [1] (setting [3]); in test [2] (setting [3]); with Streptococcus pneumoniae (setting [4])) was below 7 µg/mL in each case.
Consider `NCc1ccc(CNC(=O)c2cc(-c3c[nH]c4c(Cl)cccc34)nc3ccccc23)cc1` [Example 260], for which the MIC in test [1] (overnight 37° C.) is below 25 µg/mL; in test [2] (VREF, overnight 37° C.), below 25 µg/mL; with Streptococcus pneumoniae (S. pneu, overnight 37° C.), below 25 µg/mL.
On to `CN(C)CCN(C)C(=O)c1cc(-c2c[nH]c3ccc(Br)cc23)nc2cc(Cl)ccc12` [Example 505], for which the minimum inhibitory concentration (MIC) in test [1] (16 h, 37° C., about 16 hours) is below 7 µg/mL; in test [2] (16 h, 37° C., about 16 hours), below 7 µg/mL; in the test with Streptococcus pneumoniae (37° C., about 16 hours), below 7 µg/mL.
In the case of `CC(C)CNC(=O)c1cc(-c2c[nH]c3ccc(Br)cc23)nc2ccc(C#CCN3CCCCC3)cc12` [Example 519], the MIC is below 7 µg/mL in test [1] (16 h, 37° C., about 16 hours); above 25 µg/mL in test [2] (16 h, 37° C., about 16 hours); below 7 µg/mL with Streptococcus pneumoniae (37° C., about 16 hours).
Regarding `NCc1cccc(CNC(=O)c2cc(-c3c[nH]c4ccc(Br)cc34)nc3cc(I)ccc23)c1` [Example 252], the MIC in test [1] (overnight 37° C.) is below 7 µg/mL; in test [2] (VREF, overnight 37° C.), below 7 µg/mL; in the test with Streptococcus pneumoniae (S. pneu, overnight 37° C.), below 7 µg/mL.
As to `NCc1ccc(CNC(=O)c2cc(-c3c[nH]c4ccc(Br)cc34)nc3c(Cl)cccc23)cc1` [Example 143], the MIC (in test [1] (setting [3]); in test [2] (setting [3]); with Streptococcus pneumoniae (setting [4])) was below 7 µg/mL in each case.
On to `NCCNC(=O)c1cc(-c2c[nH]c3ccc(Br)cc23)nc2ccc(C#CCO)cc12` [Example 523], for which the MIC is below 7 µg/mL in test [1] (16 h, 37° C., about 16 hours); below 7 µg/mL in test [2] (16 h, 37° C., about 16 hours); below 7 µg/mL in the test with Streptococcus pneumoniae (37° C., about 16 hours).
For `NCc1ccc(CNC(=O)c2cc(-c3c[nH]c4ccc(Br)cc34)nc3ccccc23)cc1` [Example 283], the MIC in test [1] (overnight 37° C.) is below 7 µg/mL; in test [2] (VREF, overnight 37° C.), below 7 µg/mL; in the test with Streptococcus pneumoniae (S. pneu, overnight 37° C.) it was below 7 µg/mL.
On to `Brc1ccc2[nH]cc(-c3nc4ccc(C#CCN5CCCCC5)cc4c4c3CCO4)c2c1` [Example 517], for which the MIC is below 7 µg/mL in test [1] (16 h, 37° C., about 16 hours); above 25 µg/mL in test [2] (16 h, 37° C., about 16 hours); below 7 µg/mL with Streptococcus pneumoniae (37° C., about 16 hours).
